Test system: MOG35-55-induced experimental autoimmune encephalomyelitis (EAE)
Experiment: MOG35-55-induced experimental autoimmune encephalomyelitis (EAE) in C57BL/6 mice
Type: in vivo
Details: male C57BL/6 mice
Description: Assessment and Comparison of the Efficacy of Compounds of the Invention and DMF (Reference) in MOG35-55-Induced Experimental Autoimmune Encephalomyelitis (EAE) in C57BL/6 Mice
male C57BL/6 mice, 12 weeks old; 10 animals per treatment group;
Day 1—subcutaneous injection of MOG35-55, suspended in complete Freund's adjuvans and intraperitoneal injection of pertussis toxin.
Day 3—intraperitoneal injection of pertussis toxin.
Dimethylfumarate and test substances or vehicle only were administered via oral and intravenous route.
For oral administration, test substances were dissolved or suspended in 0.5% hydroxyethylcellulose (dissolved in 50 mM potassium dihydrogenphosphate, pH 5.0). Drug concentration in dose formulations: 11.54 mM;
Dose volume: 10 ml/kg body weight;
Start of treatment: Day 3
For intravenous administration, stock solutions were prepared in DMSO and serially diluted with phosphate buffered saline.
Observations were recorded on day 2, 4, 6, 8, 10, 12, 14 and 16.
Clinical score: grade 0-10; 0 (=no impairments), 1 (normal movement; limp tail: proximal 2/3 of the tail is limp and droopy), 2 (normal movement; whole tail is limp; 3 (wobbly walk; absent righting reflex), 4 (gait ataxia), 5 (milad paraparesis), 6 (moderate paraparesis), 7 (severe paraparesis or paraplegia), 8 (tetraparesis), 9 (moribund), 10 (death).

**Q.** Which results are given for `COC(=O)/C=C/C(=O)OCCN1CCSCC1` [Ia]?
**A.** body weight (FIG. 4): substantially maintained; clinical score (grade 0-10, FIG. 3, with reference to DMF): reduced with reference to DMF

From patent US20160214948A1, “PRODRUGS OF MONOMETHYL FUMARATE (MMF)” (RATIOPHARM GMBH, priority 2013, published 2016)
